{"source": "patent US20260090980A1", "about": "“COSMETIC COMPOSITIONS AND METHODS OF USING THE SAME” (MARY KAY INC., priority 2022, published 2026)", "test_system": "lipolysis", "experiment": "In-vitro activity: lipolysis", "assay_type": "cell-based", "details": "3 %", "data": [{"smiles": "Cn1c(=O)c2c(ncn2C)n(C)c1=O", "note": "[Caffeine]", "values": [{"measurement": "Activity: lipolysis", "value": "Lipolysis"}]}]}
